Inhibition data for 58 compounds are collected here from patent publication US20100120789A1, “Compound” (priority 2005, published 2010).

As a reminder, the inhibition is the relative decrease from the control value, in per cent.

In assay [1] the target is T1, Human 11β-HSD1 (Homo sapiens, UniProt P28845). The assay can be described thus: 11β-HSD1 HTRF assay (human liver microsome fractions, cortisol by HTRF). The class given is biochemical. Conditions: 10 μM compound; human liver microsomes. The protocol: 11β-HSD1 HTRF Assay Protocol
T1 sequence (P28845 whole entry): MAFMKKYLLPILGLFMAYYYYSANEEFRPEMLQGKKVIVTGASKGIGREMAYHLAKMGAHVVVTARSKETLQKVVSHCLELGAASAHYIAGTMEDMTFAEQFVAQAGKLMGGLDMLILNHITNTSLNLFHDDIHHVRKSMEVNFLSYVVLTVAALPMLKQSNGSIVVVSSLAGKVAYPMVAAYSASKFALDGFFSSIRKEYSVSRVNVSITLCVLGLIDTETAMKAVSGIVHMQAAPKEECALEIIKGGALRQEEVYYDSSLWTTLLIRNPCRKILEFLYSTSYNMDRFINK
The 11β-HSD Type 1 assay was carried out at room temperature in 96 well microtitre plates in a total volume of 40 μl. Assay buffer contained 30 mM Tris.HCl, 1 mM EDTA, pH 7.2. Inhibitor compounds were tested at varying concentrations at a final Dimethyl Sulphoxide concentration of 1%. Compounds were usually tested at 10 μM. The substrate mixture contained cortisone, NADPH and glucose-6-phosphate at final concentrations of 1 μM, 180 μM and 1 mM respectively. Assays were started by the addition of 10p1 human liver microsome fractions, 20 mg per ml protein, containing 11β-HSD Type 1, diluted 1 to 40 prior to use. Following mixing microtitre plates were shaken for 30 minutes. Reactions were stopped by the addition of 10 μl 1 mM Glyccheritinnic acid solution. Production of Cortisol was measured by Homogenous Time Resolved Fluorescence using a cortisol assay kit; Cisbio International Cortisol HTRF kit (62CORPEB), following the manufacturer's protocol.
(In general: In TR-FRET formats the signal depends on donor and acceptor labels being close together.)

In assay [2] the target is T1, Human 11β-HSD1. The assay can be described thus: 11β-HSD1 HEK assay (whole HEK 293 cells stably transfected with HSD11B1, SPA). The class given is cell-based. Also noted: expressed in transfected cells; host or cells: HEK 293. Particulars: HEK293, read-out: % INHIBITION of Human 11 β-HSD1 at 10 μM (HEK). The protocol:
11β-HSD1 HEK Assay Protocol (Cell Based Assay)
11β-HSD1 activity is measured in whole HEK 293 cells stably transfected with the HSD11B1 gene. Cells are incubated in 96-well microplates in the presence of tritiated substrate. Enzyme activity is determined by measuring the amount of tritated product by scintillation proximity assay (SPA). Assay plates contain internal high and low controls to allow calculation of percentage inhibition.
2. When the cells are 80% confluent the medium is removed from each well. 100 μl fresh, serum-free, medium containing ^3H-cortisone and test compound in 1% DMSO is added to each well*. Control wells are also dispensed.
3. The plate is incubated at […] for the required time period.
4. 50 μl of media is removed from each well and transferred to a microplate containing 100 μl of a pre-incubated mixture of anti-cortisol antibody and SPA bead. The mixture is incubated with gentle shaking until equilibrium is reached, before transferring to a scintillation counter to establish the enzyme activity in each sample.
10 μl of compound is dispensed into each well of a 96-well microplate in 10% DMSO at 100 μM concentration. 90 μl media containing ^3H-cortisone is added to each well. The compound/media/substrate mixture is then transferred to the assay plate containing the cells.

Structures are written as SMILES.

Take `CCCc1ccc(S(=O)(=O)NC23CC4CC(CC(C4)C2)C3)cc1` [compound 1341]: the inhibition at 10 µM on Human 11β-HSD1 [1] and on Human 11β-HSD1 [2] was 20 to 60% throughout.

In the case of `O=S(=O)(NC12CC3CC(CC(C3)C1)C2)c1ccc(-c2ccccc2)cc1` [compound 1344], the inhibition at 10 µM at Human 11β-HSD1 [1] and on Human 11β-HSD1 [2] was 20 to 60% each time.

With `CCCc1ccc(S(=O)(=O)NCC23CC4CC(CC(C4)C2)C3)cc1` [compound 1368], the inhibition at 10 µM on Human 11β-HSD1 [1] is > 60%; at Human 11β-HSD1 [2], 20 to 60%.

For `Cc1nc2c(NC(=O)C34CC5CC(CC(C5)C3)C4)c(C)ccc2s1` [compound 1372], the inhibition at 10 µM against Human 11β-HSD1 [1] and at Human 11β-HSD1 [2] was 20 to 60% in each case.

Turning to `Cc1nc2c(Cl)c(NC(=O)C34CC5CC(CC(C5)C3)C4)ccc2s1` [compound 1373], the values for the inhibition at 10 µM against Human 11β-HSD1 [1] and on Human 11β-HSD1 [2] were 20 to 60% and > 60%, respectively.

For the compound `O=C(NCc1cccs1)C12CC3CC(CC(C3)C1)C2` [compound 1374], the inhibition at 10 µM against Human 11β-HSD1 [1] and at Human 11β-HSD1 [2] was > 60% throughout.

With `O=C(NCCc1cccs1)C12CC3CC(CC(C3)C1)C2` [compound 1375], the inhibition at 10 µM on Human 11β-HSD1 [1] and at Human 11β-HSD1 [2] was > 60% in each case.

For `Cc1nc2cc(NC(=O)CC34CC5CC(CC(C5)C3)C4)ccc2s1` [compound 1566], on Human 11β-HSD1 [2], the inhibition at 10 µM fell in the range of 20 to 60%.

Consider `O=S(=O)(NC12CC3CC(CC(C3)C1)C2)c1cccs1` [compound 1573], for which the inhibition at 10 µM against Human 11β-HSD1 [1] was > 60%.

Regarding `CN(Cc1cccs1)C(=O)C12CC3CC(CC(C3)C1)C2` [compound 1576], the inhibition at 10 µM on Human 11β-HSD1 [1] was > 60%.

`Clc1ccc(-c2noc(C34CC5CC(CC(C5)C3)C4)n2)cc1` [compound 1627] had an inhibition at 10 µM at Human 11β-HSD1 [1] of 20 to 60%.

For the compound `O=C(NCc1cccs1)C1CCCCC1` [compound 1638], the inhibition at 10 µM at Human 11β-HSD1 [2] lay within 20 to 60%.

For `CC(C)(C)CC(=O)NCc1cccs1` [compound 1639], the inhibition at 10 µM on Human 11β-HSD1 [2] was in the range of 20 to 60%.

In the case of `CC(C(=O)NCc1cccs1)(c1ccccc1)c1ccccc1` [compound 1640], the inhibition at 10 µM on Human 11β-HSD1 [2] lay within 20 to 60%.

For `CC1(C(=O)NCc2cccs2)CC1` [compound 1641], the inhibition at 10 µM at Human 11β-HSD1 [2] fell in the range of 20 to 60%.

For `CC1(C(=O)NCc2cccs2)CCCCC1` [compound 1642], the inhibition at 10 µM on Human 11β-HSD1 [2] was 20 to 60%.

On to `O=C(NCc1cccs1)C12CC3CC(CC1C3)C2` [compound 1648], for which, at Human 11β-HSD1 [2], the inhibition at 10 µM was > 60%.

In the case of `CC(C(=O)NCCc1cccs1)(c1ccccc1)c1ccccc1` [compound 1650], the inhibition at 10 µM on Human 11β-HSD1 [2] is < 20%.

Regarding `O=C(NCCc1cccs1)C1(c2ccc(Cl)cc2)CCCC1` [compound 1651], on Human 11β-HSD1 [2], the inhibition at 10 µM is < 20%.

Turning to `CC(C)(C)CC(=O)NCCc1cccs1` [compound 1652], at Human 11β-HSD1 [2], the inhibition at 10 µM was in the range of 20 to 60%.

`CC1(C(=O)NCCc2cccs2)CC1` [compound 1654]: the inhibition at 10 µM on Human 11β-HSD1 [2] was 20 to 60%.

Regarding `CC1(C(=O)NCCc2cccs2)CCCCC1` [compound 1655], the inhibition at 10 µM on Human 11β-HSD1 [2] was > 60%.

For the compound `O=C(NCCc1cccs1)C12CC3CC(CC1C3)C2` [compound 1656], the inhibition at 10 µM at Human 11β-HSD1 [2] is > 60%.

Turning to `Cc1ccc(Cc2noc(C34CC5CC(CC(C5)C3)C4)n2)cc1` [compound 1660], the inhibition at 10 µM on Human 11β-HSD1 [2] was in the range of 20 to 60%.

For the compound `CN(Cc1cccs1)C(=O)CC12CC3CC(CC(C3)C1)C2` [compound 1661], the inhibition at 10 µM on Human 11β-HSD1 [2] is > 60%.

For the compound `O=C(CC12CC3CC(CC(C3)C1)C2)NCc1ccco1` [compound 1662], at Human 11β-HSD1 [2], the inhibition at 10 µM was > 60%.

Consider `Cn1cccc1CNC(=O)CC12CC3CC(CC(C3)C1)C2` [compound 1663], for which the inhibition at 10 µM on Human 11β-HSD1 [2] is > 60%.

With `Cc1ccc(Cc2noc(CC34CC5CC(CC(C5)C3)C4)n2)cc1` [compound 1664], the inhibition at 10 µM at Human 11β-HSD1 [2] is 20 to 60%.

On to `CC12CC3CC(C)(C1)CC(C(=O)NCc1cccs1)(C3)C2` [compound 1671], for which the inhibition at 10 µM at Human 11β-HSD1 [2] was > 60%.

With `CC12CC3CC(C)(C1)CC(C(=O)NCCc1cccs1)(C3)C2` [compound 1672], the inhibition at 10 µM on Human 11β-HSD1 [2] is > 60%.

Consider `CC(C)(C)C(=O)NCc1cccs1` [compound 1673], for which the inhibition at 10 µM on Human 11β-HSD1 [2] was 20 to 60%.

Regarding `CC(C)(C)C(=O)NCCc1cccs1` [compound 1674], the inhibition at 10 µM on Human 11β-HSD1 [2] fell in the range of 20 to 60%.

Regarding `O=C(NCc1cccs1)C12CC3CC(CC(O)(C3)C1)C2` [compound 1675], the inhibition at 10 µM on Human 11β-HSD1 [2] is < 20%.

`O=C(NCCc1cccs1)C12CC3CC(CC(O)(C3)C1)C2` [compound 1676]: the inhibition at 10 µM at Human 11β-HSD1 [2] is > 60%.

`c1csc(Cc2noc(C34CC5CC(CC(C5)C3)C4)n2)c1` [compound 1687]: the inhibition at 10 µM at Human 11β-HSD1 [2] was in the range of 20 to 60%.

On to `O=C(NCc1cc2ccccc2s1)C12CC3CC(CC(C3)C1)C2` [compound 1688], for which the inhibition at 10 µM at Human 11β-HSD1 [2] is < 20%.

Consider `O=C(NCc1csc2ccccc12)C12CC3CC(CC(C3)C1)C2` [compound 1689], for which, on Human 11β-HSD1 [2], the inhibition at 10 µM lay in the range of 20 to 60%.

On to `O=C(CC12CC3CC(CC(C3)C1)C2)NCc1cc2ccccc2s1` [compound 1690], for which, at Human 11β-HSD1 [2], the inhibition at 10 µM was 20 to 60%.

In the case of `O=C(CC12CC3CC(CC(C3)C1)C2)NCc1csc2ccccc12` [compound 1691], on Human 11β-HSD1 [2], the inhibition at 10 µM was 20 to 60%.

As to `O=C(COCc1cccs1)C12CC3CC(CC(C3)C1)C2` [compound 1692], the inhibition at 10 µM on Human 11β-HSD1 [2] is > 60%.

Take `CN(Cc1cccs1)C(=O)C1CCCCC1` [compound 1693]: on Human 11β-HSD1 [2], the inhibition at 10 µM was > 60%.

Regarding `CN(Cc1cccs1)C(=O)CC(C)(C)C` [compound 1694], at Human 11β-HSD1 [2], the inhibition at 10 µM is > 60%.

With `CN(Cc1cccs1)C(=O)C(C)(C)C` [compound 1695], on Human 11β-HSD1 [2], the inhibition at 10 µM is < 20%.

`CN(Cc1cccs1)C(=O)C1(c2ccc(Cl)cc2)CCCC1` [compound 1696]: the inhibition at 10 µM on Human 11β-HSD1 [2] is > 60%.

On to `CN(Cc1cccs1)C(=O)C1(C)CC1` [compound 1697], for which, at Human 11β-HSD1 [2], the inhibition at 10 µM is < 20%.

As for `CN(Cc1cccs1)C(=O)C(C)(c1ccccc1)c1ccccc1` [compound 1698], the inhibition at 10 µM at Human 11β-HSD1 [2] fell in the range of 20 to 60%.

With `CN(Cc1cccs1)C(=O)C1(C)CCCCC1` [compound 1699], the inhibition at 10 µM on Human 11β-HSD1 [2] is > 60%.

Consider `CN(Cc1cccs1)C(=O)C12CC3CC(CC(C3)C1)C2` [compound 1700], for which, on Human 11β-HSD1 [2], the inhibition at 10 µM was > 60%.

In the case of `O=C(NCc1cccs1)[C@H]1CC2C=CC1C2` (some centres unmarked) [compound 1706], at Human 11β-HSD1 [2], the inhibition at 10 µM is 20 to 60%.

Regarding `O=C(NCCc1cccs1)[C@H]1CC2C=CC1C2` (some centres unmarked) [compound 1707], at Human 11β-HSD1 [2], the inhibition at 10 µM was in the range of 20 to 60%.

Turning to `O=C(NCCc1cccs1)[C@@H]1CC2C=CC1C2` (some centres unmarked) [compound 1708], the inhibition at 10 µM at Human 11β-HSD1 [2] was 20 to 60%.

On to `CN(Cc1cccs1)C(=O)[C@H]1CC2C=CC1C2` (some centres unmarked) [compound 1709], for which the inhibition at 10 µM on Human 11β-HSD1 [2] is > 60%.

For the compound `CN(Cc1cccs1)C(=O)[C@@H]1CC2C=CC1C2` (some centres unmarked) [compound 1710], the inhibition at 10 µM at Human 11β-HSD1 [2] is > 60%.

Consider `O=C(NC12CC3CC(CC(C3)C1)C2)OCc1cccs1` [compound 1711], for which the inhibition at 10 µM on Human 11β-HSD1 [2] was > 60%.

In the case of `O=C(NC12CC3CC(CC(C3)C1)C2)OCCc1cccs1` [compound 1712], at Human 11β-HSD1 [2], the inhibition at 10 µM is > 60%.

Take `O=C(NCc1cccs1)NC12CC3CC(CC(C3)C1)C2` [compound 1713]: the inhibition at 10 µM on Human 11β-HSD1 [2] was 20 to 60%.

For `O=C(NCCc1cccs1)NC12CC3CC(CC(C3)C1)C2` [compound 1714], the inhibition at 10 µM on Human 11β-HSD1 [2] is > 60%.

Turning to `O=C(N1CCc2sccc2C1)C12CC3CC(CC(C3)C1)C2` [compound 1721], the inhibition at 10 µM at Human 11β-HSD1 [2] was > 60%.
